Where two headings read alike, the source gives them in different places. Non-standard residues stand in square brackets, D forms with d. Residues, ends and D or L forms follow the SMILES beside them. *: point of attachment. 5FAM = O=C1OC2(c3ccc(O)cc3Oc3cc(O)ccc32)c2ccc(C(=O)*)cc21; F2Pmp = N[C@@H](Cc1ccc(C(F)(F)P(=O)(O)O)cc1)C(=O)O; Pmp = N[C@@H](Cc1ccc(CP(=O)(O)O)cc1)C(=O)O; pY = N[C@@H](Cc1ccc(OP(=O)(O)O)cc1)C(=O)O; X1 = O=C(O)C(C(=O)O)*
Columns and labels:
[1] = target: T1, SHP2 C‐SH2 domain (Homo sapiens, UniProt Q06124); assay: Fluorescence polarization (FP) binding assay, SHP2 C-SH2 domain; conditions: 100 nM FAM-labelled peptide, increasing C-SH2 protein, 50 mM HEPES pH 7.5, 150 mM NaCl, 1 mM EDTA, 0.05% Tween 20, FP at 10 min, three independent experiments in technical triplicates, read-out: K D ± SEM, C‐SH2 (FP)
T1 construct: SHP2 N-SH2 domain (1–105), C-SH2 domain (106–220), PTP domain (224–541) and; His6 (pETM22 vector) (N, cleaved yes); made in house; host or cells: E. coli BL21(DE3)
T1 sequence (Q06124 106-220): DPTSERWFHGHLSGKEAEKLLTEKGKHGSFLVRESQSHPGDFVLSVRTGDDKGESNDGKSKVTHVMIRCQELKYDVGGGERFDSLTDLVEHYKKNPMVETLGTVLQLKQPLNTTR
Method: (§1) buffer and stored in 5 mL binding buffer at 4°C. His-tagged 3C protease (0.5 mg; EMBL) was added to the pooled eluted fractions and dialysed using Spectra Por Dialysis Tubing (MWCO 6-8 kDa, 23 mm; Spectrum Labs) in 1 L of binding buffer at 4°C for 3 hours, then overnight in fresh buffer. A new column was prepared by loading 2 mL Ni-NTA Agarose (Invitrogen) as a 50% slurry in EtOH. The column was washed with 10 mL H2O to remove the EtOH and equilibrated with 10 mL binding buffer. The protein/3C protease mixture was loaded onto the column and incubated for 1 hour at 4°C on a rocker. The flow through containing the protein was collected, the column was washed with 100 mL binding buffer and the 3C protease was eluted with 5 mL elution buffer. Protein purification was monitored by SDS-PAGE using NuPAGE 4-12% Bis-Tris Protein Gels (Invitrogen) run in MOPS buffer (50 mM MOPS, 50 mM Tris-HCl pH 7.7, 1 mM EDTA, 0.1% SDS) followed by Coomassie staining using Coomassie Brilliant Blue (Roth). The purified protein was dialysed into the final storage buffer (50 mM HEPES pH 7.5, 150 mM NaCl, 2 mM DTT, 20% glycerol). Aliquots were prepared and stored at -80°C until required. […]
(§2) 4. Fluorescence polarization
(§3) Fluorescence polarization (FP) was used to measure the binding of FAM-labelled peptides to the SHP2 C-SH2, SHP2 N-SH2, SHP2 PTP, CSK SH2 or Src SH2 domains. Each peptide was added to increasing concentrations of SHP2 C-SH2, SHP2 N-SH2, SHP2 PTP, CSK SH2 or Src SH2 protein in FP buffer (50 mM HEPES pH 7.5, 150 mM NaCl, 1 mM EDTA, 0.05% Tween 20) to give a final peptide […]
(§4) concentration of 100 nM in a final volume of 200 µL. For baseline subtraction, each peptide was added to FP buffer, instead of protein, with a final peptide concentration of 100 nM in a final volume of 200 µL. Samples were mixed gently then 3 x 60 µL of each sample was transferred into triplicate wells in a 96-well plate (OptiPlate-96 F Black; PerkinElmer). The FP was immediately measured on a Synergy H1 Microplate Reader (BioTek) with the excitation and emission monitored at 485 nm and 528 nm, respectively, over 30 minutes. FP values were automatically calculated by the Gen5 3.03 (BioTek) software associated with the microplate reader. Data were analysed in Excel 2016 by subtracting baseline values from FP values at 10 minutes. Data were then further analysed in GraphPad Prism 6 by plotting the baseline subtracted FP values against the protein concentration and fitting the data to a variable slope model of non-linear regression to obtain the KD values. Data are from three independent experiments, each performed in technical triplicates.
(§5) 5. Isothermal titration calorimetry […]
(§6) Analysis Software (Malvern Panalytical). For the data analysis, a 1:1 binding stoichiometry between the Ac-ITSM(pTyr) and SH2 domain was assumed. ITC measurements were performed once.

[2] = target: T2, SHP2 N‐SH2 domain (Homo sapiens, UniProt Q06124); assay: Fluorescence polarization (FP) binding assay, SHP2 N-SH2 domain; conditions: 100 nM FAM-labelled peptide, increasing N-SH2 protein, 50 mM HEPES pH 7.5, 150 mM NaCl, 1 mM EDTA, 0.05% Tween 20, FP at 10 min, three independent experiments in technical triplicates, read-out: K D ± SEM, N‐SH2 (FP)
T2 construct: SHP2 N-SH2 domain (1–105), C-SH2 domain (106–220), PTP domain (224–541) and; His6 (pETM22 vector) (N, cleaved yes); made in house; host or cells: E. coli BL21(DE3)
T2 sequence (Q06124 1-105): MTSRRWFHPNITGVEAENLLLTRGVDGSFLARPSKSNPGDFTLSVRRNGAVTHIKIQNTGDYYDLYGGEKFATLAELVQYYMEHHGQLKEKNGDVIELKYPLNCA
Method: as §1, §2, §3, §4, §5, §6

[3] = target: T3, full‐length SHP2 (Homo sapiens, UniProt Q06124); assay: DiFMUP phosphatase assay, peptide inhibition in the presence of ITIM-[dPEG4]2-ITSM activator; type: biochemical; conditions: for inhibitory activity against SHP2, in words: DiFMUP, 0.5 nM FL SHP2 activated with 26 nM tandem peptide, compared to peptide 21
T3 construct: 1–525) proteins were prepared; His-SUMO3 (pETM11-SUMO3 vector) (N, cleaved yes); made in house; host or cells: E. coli BL21(DE3)
T3 sequence (Q06124 1-525): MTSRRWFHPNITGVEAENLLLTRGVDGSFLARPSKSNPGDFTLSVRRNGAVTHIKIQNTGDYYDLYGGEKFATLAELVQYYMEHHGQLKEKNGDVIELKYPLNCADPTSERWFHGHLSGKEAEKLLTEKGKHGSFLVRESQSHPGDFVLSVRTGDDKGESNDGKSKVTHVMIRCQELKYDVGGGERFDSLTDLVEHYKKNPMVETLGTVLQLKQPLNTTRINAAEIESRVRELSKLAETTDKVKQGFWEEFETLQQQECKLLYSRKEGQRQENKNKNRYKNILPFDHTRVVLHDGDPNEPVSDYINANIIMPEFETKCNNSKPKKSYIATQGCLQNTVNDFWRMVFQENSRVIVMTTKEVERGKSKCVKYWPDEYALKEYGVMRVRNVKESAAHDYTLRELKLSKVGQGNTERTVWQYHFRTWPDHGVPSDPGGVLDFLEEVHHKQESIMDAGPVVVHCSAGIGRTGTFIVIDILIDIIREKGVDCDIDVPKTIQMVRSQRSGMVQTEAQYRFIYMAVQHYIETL
Method: 6. DiFMUP phosphatase assays
SHP2 dephosphorylation of the fluorogenic substrate 6,8-difluoro-4-methylumbiliferyl phosphate (DiFMUP) was measured to evaluate the effect of acetylated peptides on SHP2 activity. Final concentrations of 0.5 nM full-length SHP2, 200 µM DiFMUP (Invitrogen) and 26 nM bisphosphorylated tandem ITIM-[dPEG4]2-ITSM (CASLO ApS) were used, unless stated otherwise, per well in 96-well plates (OptiPlate-96 F Black; PerkinElmer). For peptide activation assays, each well contained 60 µL of reaction buffer (50 mM HEPES pH 7.6, 150 mM NaCl, 1 mM EDTA, 0.05% Tween 20, freshly added 5 mM DTT), 10 µL of SHP2 and 20 µL of the test peptide (0.096 nM – 51.2 µM final concentration). For peptide inhibition assays in the presence of a SHP2 activator, each well contained 40 µL of reaction buffer (50 mM HEPES pH 7.6, 150 mM NaCl, 1 mM EDTA, 0.05% Tween 20, freshly added 5 mM DTT), 10 µL of SHP2 and 40 µL of previously mixed bisphosphorylated tandem ITIM-[dPEG4]2-ITSM activator and test peptide (0.096 nM – 51.2 µM or 0.376 nM – 200 µM final concentration). To obtain the maximal activity, 10 µL of SHP2 and 20 µL of bisphosphorylated tandem ITIM-[dPEG4]2-ITSM activator was added to 60 µL of buffer. Samples were incubated for 20 minutes at room temperature and then 10 µL of DiFMUP was added to each sample, to give a final volume of 100 µL per well. For background subtraction, 10 µL of DiFMUP was added to 80 µL of buffer. The fluorescence was immediately measured on a Synergy H1 Microplate Reader (BioTek) with the excitation and emission monitored at 358 nm and 452 nm, respectively, over 30 minutes. Data were analysed in Excel 2016 by subtracting background values from emission values and calculating the slope of the emission profiles. Data were then further analysed in GraphPad Prism 6 by either: 1) plotting the slope against the peptide concentration and fitting the data to a variable slope model of non-linear regression; or 2) normalising the data to the maximal activity (SHP2 in the presence of ITIM-[dPEG4]2-ITSM; set to 100% activity) to obtain the % activity, plotting the % activity against the peptide concentration and fitting the data to a variable slope model of non-linear regression to obtain the IC50 values. Data are from two or three independent experiments, each performed in […]

SMILES	Kd [1] [nM]	Kd [2] [nM]	other results
CC[C@H](C)[C@H](NC(=O)[C@@H](NC(=O)[C@H](C)NC(=O)[C@H](Cc1ccc(OP(=O)(O)O)cc1)NC(=O)[C@H](CCC(=O)O)NC(=O)[C@@H](NC(=O)[C@H](CCC(N)=O)NC(=O)[C@H](C)NC(=O)c1ccc2c(c1)C(=O)OC21c2ccc(O)cc2Oc2cc(O)ccc21)[C@@H](C)O)[C@@H](C)O)C(=O)N[C@H](C(=O)N[C@@H](Cc1ccccc1)C(=O)N1CCC[C@H]1C(N)=O)C(C)C [peptide 1] (5FAM-AQTE[pY]ATIVFP-NH2)	62 ± 1.98	295 ± 37.2	
CC[C@H](C)[C@H](NC(=O)[C@@H](NC(=O)[C@H](C)NC(=O)[C@H](Cc1ccc(OP(=O)(O)O)cc1)NC(=O)[C@H](CCC(=O)O)NC(=O)[C@@H](NC(=O)[C@H](C)NC(=O)[C@H](CCC(=O)O)NC(=O)c1ccc2c(c1)C(=O)OC21c2ccc(O)cc2Oc2cc(O)ccc21)[C@@H](C)O)[C@@H](C)O)C(=O)N[C@H](C(=O)N[C@@H](Cc1ccccc1)C(=O)N1CCC[C@H]1C(N)=O)C(C)C [peptide 2] (5FAM-EATE[pY]ATIVFP-NH2)	51.3 ± 1.08	58 ± 4.6	
CC[C@H](C)[C@H](NC(=O)[C@@H](NC(=O)[C@H](C)NC(=O)[C@H](Cc1ccc(OP(=O)(O)O)cc1)NC(=O)[C@H](CCC(=O)O)NC(=O)[C@H](C)NC(=O)[C@H](CCC(N)=O)NC(=O)[C@H](CCC(=O)O)NC(=O)c1ccc2c(c1)C(=O)OC21c2ccc(O)cc2Oc2cc(O)ccc21)[C@@H](C)O)C(=O)N[C@H](C(=O)N[C@@H](Cc1ccccc1)C(=O)N1CCC[C@H]1C(N)=O)C(C)C [peptide 3] (5FAM-EQAE[pY]ATIVFP-NH2)	135 ± 4.6	428 ± 25.1	
CC[C@H](C)[C@H](NC(=O)[C@@H](NC(=O)[C@H](C)NC(=O)[C@H](Cc1ccc(OP(=O)(O)O)cc1)NC(=O)[C@H](CCC(=O)O)NC(=O)[C@@H](NC(=O)[C@H](CCC(N)=O)NC(=O)c1ccc2c(c1)C(=O)OC21c2ccc(O)cc2Oc2cc(O)ccc21)[C@@H](C)O)[C@@H](C)O)C(=O)N[C@@H](CCCCN)C(=O)N[C@@H](Cc1c[nH]cn1)C(=O)N1CCC[C@H]1C(N)=O [peptide 18] (5FAM-QTE[pY]ATIKHP-NH2)	88.2 ± 4.29	> 3000	
CC[C@H](C)[C@H](NC(=O)[C@@H](NC(=O)[C@H](C)NC(=O)[C@H](Cc1ccc(C(F)(F)P(=O)(O)O)cc1)NC(=O)[C@H](CCC(=O)O)NC(=O)[C@@H](NC(=O)[C@H](CCC(N)=O)NC(C)=O)[C@@H](C)O)[C@@H](C)O)C(=O)N[C@@H](CCCCN)C(=O)N[C@@H](Cc1c[nH]cn1)C(=O)N1CCC[C@H]1C(N)=O [peptide 22] (Ac-QTE[F2Pmp]ATIKHP-NH2)			IC50 [3]: > 51200 nM; inhibitory activity against SHP2, in words [3]: loss of inhibitory activity
CC[C@H](C)[C@H](NC(=O)[C@@H](NC(=O)[C@H](C)NC(=O)[C@H](Cc1ccc(CP(=O)(O)O)cc1)NC(=O)[C@H](CCC(=O)O)NC(=O)[C@@H](NC(=O)[C@H](CCC(N)=O)NC(C)=O)[C@@H](C)O)[C@@H](C)O)C(=O)N[C@@H](CCCCN)C(=O)N[C@@H](Cc1c[nH]cn1)C(=O)N1CCC[C@H]1C(N)=O [peptide 23] (Ac-QTE[Pmp]ATIKHP-NH2)			IC50 ± SEM (DiFMUP activity assay) ([3]; 0.5 nM full-length SHP2 activated with 26 nM bisphosphorylated ITIM-[dPEG4]2-ITSM, 200 µM DiFMUP, pH 7.6, 20 min pre-incubation at room temperature, two or three independent experiments in technical triplicates): No inhibition; inhibitory activity against SHP2, in words [3]: loss of inhibitory activity
CC[C@H](C)[C@H](NC(=O)[C@@H](NC(=O)[C@H](C)NC(=O)[C@H](Cc1ccc(OC(C(=O)O)C(=O)O)cc1)NC(=O)[C@H](CCC(=O)O)NC(=O)[C@@H](NC(=O)[C@H](CCC(N)=O)NC(C)=O)[C@@H](C)O)[C@@H](C)O)C(=O)N[C@@H](CCCCN)C(=O)N[C@@H](Cc1c[nH]cn1)C(=O)N1CCC[C@H]1C(N)=O [peptide 24] (Ac-QTEY(X1)ATIKHP-NH2)			IC50 ([3]; 0.5 nM full-length SHP2 activated with 26 nM bisphosphorylated ITIM-[dPEG4]2-ITSM, 200 µM DiFMUP, pH 7.6, 20 min pre-incubation at room temperature, two or three independent experiments in technical triplicates, read-out: IC50 ± SEM (DiFMUP activity assay)): 7820 ± 1950 nM

— publication PMC12118337, “Development of a Peptide Inhibitor Targeting the C‐SH2 Domain of the SHP2 Phosphatase” (Chembiochem, 2025)
